In ChEMBL document CHEMBL4229492, “Design, Synthesis, and Biological Evaluation of Novel 7-[(3 aS,7 aS)-3 a-Aminohexahydropyrano[3,4- c]pyrrol-2(3 H)-yl]-8-methoxyquinolines with Potent Antibacterial Activity against Respiratory Pathogens” (J Med Chem, 2018):
Converted amounts (≈) assume the structure as drawn.

Test system: Mus musculus
Assay: Toxicity in Slc:ddY mouse assessed as induction of convulsion at 5 ug/5 uL/mouse administered intracisternally 30 mins after 400 mg/kg, po BPAA dosing and measured over 30 mins post dose
Format: organism-based
Conditions: in vivo, 0.5 h

SMILES	Activity
O=C(O)c1cn(C2CC2)c2cc(N3CCNCC3)c(F)cc2c1=O [CIPROFLOXACIN]	Toxic

Test system: Streptococcus pyogenes
Assay: Antibacterial activity against Streptococcus pyogenes ATCC 12344 after 18 hrs by two-fold microbroth dilution method
Format: functional
Conditions: ATCC 12344, 18 h

SMILES	MIC [µg/mL]
N[C@@]12CCCC[C@H]1CNC2	0.025 (≈ 0.178 µM)

Test system: not listed separately
Assay: AUC (0 to 8 hrs) in Crj:CD rat at 5 mg/kg, po
Format: ADME, organism-based
Parameters: time < 8 hr, dose 5 mg/kg, route oral
Conditions: in vivo

SMILES	AUC(0-t) at 8 h [ng·h/mL]
N[C@@]12CCCC[C@H]1CNC2	4760

Test system: Mus musculus
Assay: Toxicity in Slc:ddY mouse assessed as induction of mortality at 15 ug/5 uL/mouse administered intracisternally 30 mins after 400 mg/kg, po BPAA dosing and measured over 30 mins post dose
Format: organism-based
Conditions: in vivo, 0.5 h

SMILES	Activity
O=C(O)c1cn(C2CC2)c2cc(N3CCNCC3)c(F)cc2c1=O [CIPROFLOXACIN]	Toxic

Molecular target: T1, hERG (KCNH2) (Homo sapiens, UniProt Q12809)
Assay: Inhibition of human ERG expressed in HEK293 cells at 100 uM
Format: cell-based
Conditions: HEK293 cells that express human ERG

T1 sequence (Q12809 whole entry): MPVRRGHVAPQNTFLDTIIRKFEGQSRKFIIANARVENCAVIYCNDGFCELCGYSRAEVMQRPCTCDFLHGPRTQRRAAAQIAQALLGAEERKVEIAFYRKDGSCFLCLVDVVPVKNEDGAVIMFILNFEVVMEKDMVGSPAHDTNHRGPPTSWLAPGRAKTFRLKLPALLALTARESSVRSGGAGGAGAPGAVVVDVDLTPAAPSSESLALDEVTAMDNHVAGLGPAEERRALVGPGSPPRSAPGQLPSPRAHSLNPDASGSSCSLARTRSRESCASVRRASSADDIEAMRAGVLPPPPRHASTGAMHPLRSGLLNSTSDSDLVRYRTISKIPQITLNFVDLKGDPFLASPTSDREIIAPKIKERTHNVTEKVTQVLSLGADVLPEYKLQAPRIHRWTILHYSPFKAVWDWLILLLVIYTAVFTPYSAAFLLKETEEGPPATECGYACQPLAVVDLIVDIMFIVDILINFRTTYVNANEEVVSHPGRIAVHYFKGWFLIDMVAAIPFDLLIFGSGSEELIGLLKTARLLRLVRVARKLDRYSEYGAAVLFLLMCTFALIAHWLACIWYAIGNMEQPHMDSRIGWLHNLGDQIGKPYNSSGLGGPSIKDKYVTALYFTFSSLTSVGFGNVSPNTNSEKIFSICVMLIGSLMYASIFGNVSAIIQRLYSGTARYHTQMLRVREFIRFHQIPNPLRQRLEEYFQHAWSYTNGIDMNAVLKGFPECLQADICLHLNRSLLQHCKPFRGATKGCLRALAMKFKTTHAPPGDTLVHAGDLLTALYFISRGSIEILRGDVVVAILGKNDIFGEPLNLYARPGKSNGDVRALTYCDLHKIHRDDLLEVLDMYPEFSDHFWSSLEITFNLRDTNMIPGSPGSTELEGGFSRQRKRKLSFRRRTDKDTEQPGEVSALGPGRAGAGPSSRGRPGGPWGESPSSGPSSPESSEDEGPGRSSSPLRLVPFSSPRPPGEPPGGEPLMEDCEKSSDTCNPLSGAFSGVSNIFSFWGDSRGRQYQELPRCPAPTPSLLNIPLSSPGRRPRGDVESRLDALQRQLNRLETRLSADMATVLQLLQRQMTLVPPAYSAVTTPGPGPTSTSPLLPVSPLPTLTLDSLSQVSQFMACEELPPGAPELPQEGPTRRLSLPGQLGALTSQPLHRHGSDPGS

SMILES	inhibition at 100 µM [%]
N[C@@]12CCCC[C@H]1CNC2	36

Test system: not listed separately
Assay: Cmax in Crj:CD rat at 5 mg/kg, po
Format: ADME, organism-based
Parameters: dose 5 mg/kg, route oral
Conditions: in vivo

SMILES	Cmax [ng/mL]
N[C@@]12CCCC[C@H]1CNC2	1280

Molecular target: T1, hERG (KCNH2)
Assay: Inhibition of human ERG expressed in HEK293 cells at 30 uM
Format: cell-based
Conditions: HEK293 cells that express human ERG

SMILES	inhibition at 30 µM [%]
N[C@@]12CCCC[C@H]1CNC2	19

Test system: Mus musculus
Assay: Toxicity in Slc:ddY mouse assessed as induction of mortality at 5 ug/5 uL/mouse administered intracisternally and measured over 30 mins post dose
Format: organism-based
Conditions: in vivo, other, 0.5 h

SMILES	Activity
O=C(O)c1cn(C2CC2)c2cc(N3CCNCC3)c(F)cc2c1=O [CIPROFLOXACIN]	Non-Toxic

Test system: Staphylococcus aureus
Assay: Antibacterial activity against levofloxacin and methicillin-resistant Staphylococcus aureus 890325-1 after 18 hrs by two-fold microbroth dilution method
Format: functional
Conditions: 890325-1, 18 h

SMILES	MIC [µg/mL]
N[C@@]12CCCC[C@H]1CNC2	0.1 (≈ 0.713 µM)

Test system: Streptococcus pneumoniae
Assay: Antibacterial activity against penicillin-susceptible Streptococcus pneumoniae J24 after 18 hrs by two-fold microbroth dilution method
Format: functional
Conditions: J24, 18 h

SMILES	MIC [µg/mL]
N[C@@]12CCCC[C@H]1CNC2	0.025 (≈ 0.178 µM)

Test system: Haemophilus influenzae
Assay: Antibacterial activity against Haemophilus influenzae ATCC 49247 after 18 hrs by two-fold microbroth dilution method
Format: functional
Conditions: ATCC 49247, 18 h

SMILES	MIC [µg/mL]
N[C@@]12CCCC[C@H]1CNC2	0.012 (≈ 0.0856 µM)

Test system: Mus musculus
Assay: Toxicity in Slc:ddY mouse assessed as induction of mortality at 50 ug/5 uL/mouse administered intracisternally 30 mins after 400 mg/kg, po BPAA dosing and measured over 30 mins post dose
Format: organism-based
Conditions: in vivo, 0.5 h

SMILES	Activity
O=C(O)c1cn(C2CC2)c2cc(N3CCNCC3)c(F)cc2c1=O [CIPROFLOXACIN]	Toxic

Test system: Mus musculus
Assay: Toxicity in Slc:ddY mouse assessed as induction of convulsion at 50 ug/5 uL/mouse administered intracisternally 30 mins after 400 mg/kg, po BPAA dosing and measured over 30 mins post dose
Format: organism-based
Conditions: in vivo, 0.5 h

SMILES	Activity
O=C(O)c1cn(C2CC2)c2cc(N3CCNCC3)c(F)cc2c1=O [CIPROFLOXACIN]	Toxic

Test system: Pseudomonas aeruginosa
Assay: Antibacterial activity against Pseudomonas aeruginosa PAO1 after 18 hrs by two-fold microbroth dilution method
Format: functional
Conditions: PAO1, 18 h

SMILES	MIC [µg/mL]
N[C@@]12CCCC[C@H]1CNC2	0.39 (≈ 2.78 µM)

Test system: Mus musculus
Assay: Toxicity in Slc:ddY mouse assessed as induction of convulsion at 15 ug/5 uL/mouse administered intracisternally 30 mins after 400 mg/kg, po BPAA dosing and measured over 30 mins post dose
Format: organism-based
Conditions: in vivo, 0.5 h

SMILES	Activity
O=C(O)c1cn(C2CC2)c2cc(N3CCNCC3)c(F)cc2c1=O [CIPROFLOXACIN]	Toxic

Test system: Staphylococcus aureus
Assay: Antibacterial activity against Staphylococcus aureus SMITH after 18 hrs by two-fold microbroth dilution method
Format: functional
Conditions: not given

SMILES	MIC [µg/mL]
N[C@@]12CCCC[C@H]1CNC2	< 0.003

Test system: Staphylococcus aureus
Assay: Antibacterial activity against levofloxacin and methicillin-resistant Staphylococcus aureus 870307 after 18 hrs by two-fold microbroth dilution method
Format: functional
Conditions: Staphylococcus aureus, 870307, 18 h

SMILES	MIC [µg/mL]
N[C@@]12CCCC[C@H]1CNC2	0.1 (≈ 0.713 µM)

Test system: Mus musculus
Assay: Toxicity in Slc:ddY mouse assessed as induction of mortality at 5 ug/5 uL/mouse administered intracisternally 30 mins after 400 mg/kg, po BPAA dosing and measured over 30 mins post dose
Format: organism-based
Conditions: in vivo, 0.5 h

SMILES	Activity
O=C(O)c1cn(C2CC2)c2cc(N3CCNCC3)c(F)cc2c1=O [CIPROFLOXACIN]	Toxic

Test system: Klebsiella pneumoniae
Assay: Antibacterial activity against Klebsiella pneumoniae TYPE 1 after 18 hrs by two-fold microbroth dilution method
Format: functional
Conditions: TYPE 1, 18 h

SMILES	MIC [µg/mL]
N[C@@]12CCCC[C@H]1CNC2	0.05 (≈ 0.357 µM)

Test system: Escherichia coli
Assay: Antibacterial activity against Escherichia coli 5-037042'98 harboring gyrase A Asp87Gly mutation after 18 hrs by two-fold microbroth dilution method
Format: functional
Conditions: 5-037042'98, 18 h

SMILES	MIC [µg/mL]
N[C@@]12CCCC[C@H]1CNC2	0.025 (≈ 0.178 µM)

Test system: Streptococcus pneumoniae
Assay: Antibacterial activity against penicillin-susceptible Streptococcus pneumoniae J41 after 18 hrs by two-fold microbroth dilution method
Format: functional
Conditions: J41, 18 h

SMILES	MIC [µg/mL]
N[C@@]12CCCC[C@H]1CNC2	0.025 (≈ 0.178 µM)

Test system: Enterococcus faecalis
Assay: Antibacterial activity against Enterococcus faecalis ATCC 19433 after 18 hrs by two-fold microbroth dilution method
Format: functional
Conditions: ATCC 19433, 18 h

SMILES	MIC [µg/mL]
N[C@@]12CCCC[C@H]1CNC2	0.1 (≈ 0.713 µM)

Test system: Mus musculus
Assay: Toxicity in Slc:ddY mouse assessed as induction of convulsion at 5 ug/5 uL/mouse administered intracisternally and measured over 30 mins post dose
Format: organism-based
Conditions: in vivo, other, 0.5 h

SMILES	Activity
O=C(O)c1cn(C2CC2)c2cc(N3CCNCC3)c(F)cc2c1=O [CIPROFLOXACIN]	Non-Toxic

Test system: Bacillus spizizenii
Assay: Antibacterial activity against Bacillus subtilis ATCC 6633 after 18 hrs by two-fold microbroth dilution method
Format: functional
Conditions: ATCC 6633, 18 h

SMILES	MIC [µg/mL]
N[C@@]12CCCC[C@H]1CNC2	0.006 (≈ 0.0428 µM)

Test system: Moraxella catarrhalis
Assay: Antibacterial activity against Moraxella catarrhalis ATCC 25238 after 18 hrs by two-fold microbroth dilution method
Format: functional
Conditions: ATCC 25238, 18 h

SMILES	MIC [µg/mL]
N[C@@]12CCCC[C@H]1CNC2	0.025 (≈ 0.178 µM)

Test system: Escherichia coli
Assay: Antibacterial activity against Escherichia coli NIHJ after 18 hrs by two-fold microbroth dilution method
Format: functional
Conditions: not given

SMILES	MIC [µg/mL]
N[C@@]12CCCC[C@H]1CNC2	0.006 (≈ 0.0428 µM)

Test system: Escherichia coli
Assay: Antibacterial activity against quinolone-resistant Escherichia coli DNS5101 after 18 hrs by two-fold microbroth dilution method
Format: functional
Conditions: DNS5101, 18 h

SMILES	MIC [µg/mL]
N[C@@]12CCCC[C@H]1CNC2	1.56 (≈ 11.1 µM)
